Laboratory results from patent US8791115B2, “Combination of triazine derivatives and insulin sensitisers” (Poxel SAS, priority 2006, dated 2014).
Structures can show the parent of a compound that is named as a salt.

Test system: diabetic GK rats
Experiment: Modulation of glucose levels (glycaemia and oral glucose tolerance test) in diabetic GK rats
Assay type: in vivo, rat
Details: for % variation vs control (glycaemia after 4 days of treatment) / Glycaemia after 4 days of treatment: PO bid for 4 days, alone or combined; for Glycaemia before treatment: baseline before treatment
Procedure: Biological Test: Modulation of Glucose Levels with the Combinations of the Invention with Insulin Sensitisers
The capacity of the compounds of the invention in combination with insulin-sensitising antidiabetic compounds to modify the blood glucose levels is evaluated in vivo in diabetic GK rats.
Alone or in combination, the antidiabetic agents are administered twice a day (bid) to the GK rats for 4 days. The oral glucose tolerance test (OGTT) is performed after the last day of treatment.
OGTT is performed in the morning after 3 hours of fasting by oral administration of a glucose charge of 2 g/kg of body mass. The blood samples are collected from the tail vein at 0; 10; 20; 30; 45; 60; 90 and 120 minutes to determine the glucose levels.
The two compounds were administered alone and in combination. The doses used for the hydrochloride salt of (+)-2-amino-3,6-dihydro-4-dimethylamino-6-methyl-1,3,5-triazine were 50 and 100 mg/kg PO twice daily for 4 days.

[1] = GK rats, triazine salt 100 mg/kg, rosiglitazone 5 mg/kg

SMILES	% variation vs control (glycaemia after 4 days of treatment) [1] [%]	Glycaemia after 4 days of treatment [1] [mmol/L]	Glycaemia before treatment (GK rats) [mmol/L]	fasted plasmatic glucose level (GK rats, 4 days, rosiglitazone 5 mg/kg, triazine salt 100 mg/kg)	glucose tolerance, compared with rosiglitazone (GK rats, OGTT, triazine salt 100 mg/kg vs rosiglitazone 5 mg/kg)	% decrease in AUC vs control (OGTT after 4 days of treatment PO bid, triazine salt 100 mg/kg, rosiglitazone 5 mg/kg) [%]	Glycaemia R under the curve (AUC) (OGTT, glucose 2 g/kg oral after 3 h fasting, 0-120 min, after 4 days of treatment PO bid, triazine salt 100 mg/kg, rosiglitazone 5 mg/kg)
CN(CCOc1ccc(CC2SC(=O)NC2=O)cc1)c1ccccn1 (stereo not shown) [Rosiglitazone, rosiglitazone, reference compound]	−19.7	10.52 ± 0.84	12.81 ± 0.27	–	–	–	–
CC1N=C(N)NC(N(C)C)=N1 (single isomer, unassigned; (+)) [(+)-2-amino-3,6-dihydro-4-dimethylamino-6-methyl-1,3,5-triazine hydrochloride]	−16	11.01 ± 0.37	12.95 ± 0.41	induced a decrease	better glucose tolerance	−19.6	2688 +/− 99
